Results taken from article PMC9434702 (Journal of medicinal chemistry, 2022).
Blank lines part the entries; values can stand above or below the compound they belong to.

Legend:
[1] = rat brain; cited from earlier work
mGluR2 [2] = molecular target: T1, mGluR2 (Homo sapiens, UniProt Q14416); conditions: mGluR2 NAM; cited from earlier work
mGluR2 [3] = molecular target: mGluR2 (Rattus norvegicus, UniProt P31421); experiment: Pretreatment; assay type: in vivo, Sprague–Dawley rats
[4] = rat; cited from earlier work
[5] = Rat liver microsome stability; assay type: in vitro ADME, Sprague–Dawley rat; conditions: NADPH, 37 °C, peak area at 60 min vs 0 min
Rat plasma stability = assay type: in vitro ADME; conditions: 37 °C, peak area at 60 min vs 0 min
mGluR2 [6] = molecular target: T1, mGluR2
recombinant human Pgp = recombinant human Pgp (Homo sapiens, UniProt P08183); experiment: Pgp-Glo assay; assay type: in vitro ADME; conditions: 100 μM compound; change relative to Na3VO4 samples = Pgp ATPase activity
recombinant human Pgp, sequence (P08183 whole entry): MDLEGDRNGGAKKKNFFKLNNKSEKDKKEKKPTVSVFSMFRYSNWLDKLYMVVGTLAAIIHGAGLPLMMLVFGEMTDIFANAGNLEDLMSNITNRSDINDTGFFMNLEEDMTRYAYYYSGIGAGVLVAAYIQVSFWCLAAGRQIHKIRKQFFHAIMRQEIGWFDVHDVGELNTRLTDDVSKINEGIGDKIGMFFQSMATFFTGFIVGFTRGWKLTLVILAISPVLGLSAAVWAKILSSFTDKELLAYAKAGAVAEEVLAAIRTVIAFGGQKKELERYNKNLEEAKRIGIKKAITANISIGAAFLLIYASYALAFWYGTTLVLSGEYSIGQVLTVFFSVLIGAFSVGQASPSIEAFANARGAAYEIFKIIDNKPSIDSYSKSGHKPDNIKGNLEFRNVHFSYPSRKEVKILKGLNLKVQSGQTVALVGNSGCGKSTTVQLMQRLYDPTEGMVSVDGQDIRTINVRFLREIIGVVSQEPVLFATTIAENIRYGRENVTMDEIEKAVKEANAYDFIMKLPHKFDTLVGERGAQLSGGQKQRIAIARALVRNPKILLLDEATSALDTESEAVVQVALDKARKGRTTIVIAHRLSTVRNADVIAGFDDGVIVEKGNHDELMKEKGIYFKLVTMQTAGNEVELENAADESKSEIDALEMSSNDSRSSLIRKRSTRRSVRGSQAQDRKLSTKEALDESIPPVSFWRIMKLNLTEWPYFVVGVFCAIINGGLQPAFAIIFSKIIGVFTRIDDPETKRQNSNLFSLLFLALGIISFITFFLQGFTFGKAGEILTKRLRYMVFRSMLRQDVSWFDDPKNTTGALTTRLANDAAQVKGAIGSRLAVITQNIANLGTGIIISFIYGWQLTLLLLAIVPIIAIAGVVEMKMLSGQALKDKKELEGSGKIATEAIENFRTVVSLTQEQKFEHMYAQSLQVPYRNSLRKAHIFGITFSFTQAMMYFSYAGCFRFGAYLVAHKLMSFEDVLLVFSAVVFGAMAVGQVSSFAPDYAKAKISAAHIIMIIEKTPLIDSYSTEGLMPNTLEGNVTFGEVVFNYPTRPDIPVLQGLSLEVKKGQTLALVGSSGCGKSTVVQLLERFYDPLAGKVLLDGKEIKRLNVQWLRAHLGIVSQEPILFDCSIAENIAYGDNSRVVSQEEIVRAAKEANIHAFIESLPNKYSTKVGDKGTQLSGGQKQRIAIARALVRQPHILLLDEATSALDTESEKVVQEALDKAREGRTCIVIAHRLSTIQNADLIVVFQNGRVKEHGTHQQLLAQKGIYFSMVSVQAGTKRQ

[7] = 0.5 mg/kg iv., 1 min before tracer
[8] = 0.2 mg/kg iv., 1 min before tracer
[9] = 0.2 mg/kg iv., 20 min before tracer

T1 sequence (Q14416 19-872): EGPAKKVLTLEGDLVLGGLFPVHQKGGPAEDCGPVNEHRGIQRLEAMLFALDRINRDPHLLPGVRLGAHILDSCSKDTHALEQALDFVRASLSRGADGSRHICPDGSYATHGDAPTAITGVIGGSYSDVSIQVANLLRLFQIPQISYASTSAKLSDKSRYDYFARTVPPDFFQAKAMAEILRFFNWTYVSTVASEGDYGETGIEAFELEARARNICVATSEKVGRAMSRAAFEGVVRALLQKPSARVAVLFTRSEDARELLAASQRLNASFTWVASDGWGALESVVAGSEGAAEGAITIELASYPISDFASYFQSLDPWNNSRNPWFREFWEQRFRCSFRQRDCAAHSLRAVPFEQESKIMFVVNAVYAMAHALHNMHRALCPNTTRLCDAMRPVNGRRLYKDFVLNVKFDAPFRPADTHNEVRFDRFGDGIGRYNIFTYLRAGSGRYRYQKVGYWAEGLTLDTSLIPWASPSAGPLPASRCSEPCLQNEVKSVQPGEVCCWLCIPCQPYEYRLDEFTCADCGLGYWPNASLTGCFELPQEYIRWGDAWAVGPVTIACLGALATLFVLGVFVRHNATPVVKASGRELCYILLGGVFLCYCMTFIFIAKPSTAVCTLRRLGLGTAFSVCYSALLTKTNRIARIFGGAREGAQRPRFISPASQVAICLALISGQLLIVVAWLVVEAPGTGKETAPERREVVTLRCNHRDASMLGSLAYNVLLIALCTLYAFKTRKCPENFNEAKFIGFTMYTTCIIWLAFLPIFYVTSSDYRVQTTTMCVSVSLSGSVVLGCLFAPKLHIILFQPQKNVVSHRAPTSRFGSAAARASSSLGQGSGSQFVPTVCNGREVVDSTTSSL
mGluR2 (Rattus norvegicus, UniProt P31421), sequence (P31421 19-872): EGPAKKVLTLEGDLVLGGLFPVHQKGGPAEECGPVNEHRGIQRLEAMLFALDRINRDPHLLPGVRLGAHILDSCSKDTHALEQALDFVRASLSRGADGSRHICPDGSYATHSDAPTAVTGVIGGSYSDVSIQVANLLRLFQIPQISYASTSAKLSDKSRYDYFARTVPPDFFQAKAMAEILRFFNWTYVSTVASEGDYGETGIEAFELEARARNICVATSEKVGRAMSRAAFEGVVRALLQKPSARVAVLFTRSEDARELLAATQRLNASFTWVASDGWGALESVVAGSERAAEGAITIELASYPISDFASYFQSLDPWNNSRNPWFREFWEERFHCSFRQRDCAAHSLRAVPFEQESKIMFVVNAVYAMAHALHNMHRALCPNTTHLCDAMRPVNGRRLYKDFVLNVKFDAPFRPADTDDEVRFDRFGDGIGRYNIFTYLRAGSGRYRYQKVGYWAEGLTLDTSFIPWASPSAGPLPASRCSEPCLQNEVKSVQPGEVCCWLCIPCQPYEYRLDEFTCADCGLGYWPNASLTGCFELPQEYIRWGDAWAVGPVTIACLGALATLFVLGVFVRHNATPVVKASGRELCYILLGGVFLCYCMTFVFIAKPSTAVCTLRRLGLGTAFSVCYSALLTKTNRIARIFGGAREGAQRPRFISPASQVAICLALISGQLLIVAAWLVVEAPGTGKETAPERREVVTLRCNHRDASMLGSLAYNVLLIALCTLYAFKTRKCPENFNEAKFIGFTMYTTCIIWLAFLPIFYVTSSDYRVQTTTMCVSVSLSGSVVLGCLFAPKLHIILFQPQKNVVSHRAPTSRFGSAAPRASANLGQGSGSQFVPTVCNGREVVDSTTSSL

- microsome stability [5]: > 92%
- plasma stability (Rat plasma stability): > 92%
- agonist activity at mGluR2 (mGluR2 [6]; cells induced with 1 μg/mL tetracycline, no glutamate): no agonist activity was observed
- concentration at which potent NAM activity begins (mGluR2 [6]; in the presence of increasing concentrations of L-glutamate): ~30 nM
- luminescence change (p/s) (recombinant human Pgp): 3.07 × 10^7 p/s
Compound: CC1(C)CCc2c(-c3ccc(F)cc3F)cc(C(N)=O)nc2O1 [compound 12, 5-(2,4-Difluorophenyl)-2,2-dimethyl-3,4-dihydro-2H-pyrano[2,3-b]pyridine-7-carboxamide]

- plasma stability (Rat plasma stability): 94.5%
- luminescence change (p/s) (recombinant human Pgp): 1.53 × 10^7 p/s
Compound: COc1ccc(-c2cc(C(N)=O)nc3c2CCC(C)(C)O3)c(F)c1 [compound 13, 5-(2-Fluoro-4-methoxyphenyl)-2,2-dimethyl-3,4-dihydro-2H-pyrano[2,3-b]pyridine-7-carboxamide]

- decrease of [11C]13 radioactivity accumulation, among ROIs (mGluR2 [3]; [8]): 41.7 ± 1.1%
- decrease of [11C]13 radioactivity accumulation, cerebellum (least) (mGluR2 [3]; [8]): 39.6%
- decrease of [11C]13 radioactivity accumulation, hypothalamus (highest) (mGluR2 [3]; [8]): 42.6%
- decrease of [11C]13 radioactivity accumulation, average (mGluR2 [3]; [9]): 12.7 ± 1.7%
- decrease of [11C]13 radioactivity accumulation, cerebellum (highest) (mGluR2 [3]; [9]): 15.2%
- decrease of [11C]13 radioactivity accumulation, striatum (lowest) (mGluR2 [3]; [9]): 11.1%
Compound: N#Cc1cc(C2=Nc3ccc(Br)cc3NC(=O)C2)ccn1 [compound 26]

Second part, the compound before the results:

Compound: COc1ccc(-c2cc(C(N)=O)nc3cc(CN4C(=O)CCC4=O)ccc23)c(F)c1 [compound 7]
- SUVmax [1]: 0.3

Compound: Cn1ccc(COc2cnc(C(N)=O)cc2-c2ccc(F)cc2)n1 [compound 9]
- IC50 (mGluR2 [2]): 78 nM
- decrease of [11C]13 radioactivity accumulation, average across ROIs (mGluR2 [3]; [7]): 22.4 ± 7.3%
- decrease of [11C]13 radioactivity accumulation, cortex (highest) (mGluR2 [3]; [7]): 38.5%
- decrease of [11C]13 radioactivity accumulation, thalamus (least) (mGluR2 [3]; [7]): 17.1%
- decrease of [11C]13 radioactivity accumulation, total average (mGluR2 [3]; 0.5 mg/kg iv., 20 min before tracer): 14.5 ± 1.5%
- half-life (t1/2) [4]: 20 min
- plasma clearance (CLp) [4]: 118 mL/min/kg
